Assay results taken from ChEMBL document CHEMBL4507275, “Data for DCP probe BI-2545” (2021).

Assays:
[1] = molecular target: Cyclin-dependent kinase 2 (Homo sapiens) (UniProt P24941); conditions: Compound concentration 1000.0 nM
[2] = molecular target: cAMP-dependent protein kinase catalytic subunit beta (Homo sapiens) (UniProt P22694); conditions: Compound concentration 1000.0 nM
[3] = molecular target: RAF proto-oncogene serine/threonine-protein kinase (Homo sapiens) (UniProt P04049); conditions: Compound concentration 1000.0 nM
[4] = test system: Leucine-rich repeat serine/threonine-protein kinase 2 (Homo sapiens), Q5S007 [G2019S]; conditions: Compound concentration 1000.0 nM
[5] = molecular target: Mitogen-activated protein kinase kinase kinase 1 (Homo sapiens) (UniProt Q13233); conditions: Compound concentration 1000.0 nM
[6] = molecular target: Ribosomal protein S6 kinase alpha-4 (Homo sapiens) (UniProt O75676); conditions: Compound concentration 1000.0 nM
[7] = molecular target: STE20/SPS1-related proline-alanine-rich protein kinase (Homo sapiens) (UniProt Q9UEW8); conditions: Compound concentration 1000.0 nM
[8] = molecular target: Cyclin-dependent kinase-like 3 (Homo sapiens) (UniProt Q8IVW4); conditions: Compound concentration 1000.0 nM
[9] = molecular target: Calcium/calmodulin-dependent protein kinase type 1B (Homo sapiens) (UniProt Q6P2M8); conditions: Compound concentration 1000.0 nM
[10] = molecular target: Mitogen-activated protein kinase 3 (Homo sapiens) (UniProt P27361); conditions: Compound concentration 1000.0 nM
[11] = molecular target: Interferon-induced, double-stranded RNA-activated protein kinase (Homo sapiens) (UniProt P19525); conditions: Compound concentration 1000.0 nM
[12] = molecular target: Bone morphogenetic protein receptor type-1B (Homo sapiens) (UniProt O00238); conditions: Compound concentration 1000.0 nM
[13] = molecular target: Myosin light chain kinase family member 4 (Homo sapiens) (UniProt Q86YV6); conditions: Compound concentration 1000.0 nM
[14] = molecular target: Ephrin type-A receptor 8 (Homo sapiens) (UniProt P29322); conditions: Compound concentration 1000.0 nM
[15] = molecular target: Fibroblast growth factor receptor 4 (Homo sapiens) (UniProt P22455); conditions: Compound concentration 1000.0 nM
[16] = molecular target: Cyclin-G-associated kinase (Homo sapiens) (UniProt O14976); conditions: Compound concentration 1000.0 nM
[17] = molecular target: Serine/threonine-protein kinase haspin (Homo sapiens) (UniProt Q8TF76); conditions: Compound concentration 1000.0 nM
[18] = molecular target: Serine/threonine-protein kinase 38 (Homo sapiens) (UniProt Q15208); conditions: Compound concentration 1000.0 nM
[19] = molecular target: Testis-specific serine/threonine-protein kinase 1 (Homo sapiens) (UniProt Q9BXA7); conditions: Compound concentration 1000.0 nM
[20] = molecular target: Serine/threonine-protein kinase tousled-like 1 (Homo sapiens) (UniProt Q9UKI8); conditions: Compound concentration 1000.0 nM
[21] = molecular target: Alpha-2C adrenergic receptor (Homo sapiens) (UniProt P18825); conditions: Compound concentration 10.0 uM
[22] = molecular target: cAMP-dependent protein kinase catalytic subunit PRKX (Homo sapiens) (UniProt P51817); conditions: Compound concentration 1000.0 nM
[23] = molecular target: Cyclin-dependent kinase 9 (Homo sapiens) (UniProt P50750); conditions: Compound concentration 1000.0 nM
[24] = molecular target: Histamine H4 receptor (Homo sapiens) (UniProt Q9H3N8); conditions: Compound concentration 10.0 uM
[25] = molecular target: RAC-alpha serine/threonine-protein kinase (Homo sapiens) (UniProt P31749); conditions: Compound concentration 1000.0 nM
[26] = molecular target: Calcium-dependent protein kinase 1 (Plasmodium falciparum) (UniProt P62344); conditions: Compound concentration 1000.0 nM
[27] = test system: Phosphatidylinositol 4,5-bisphosphate 3-kinase catalytic subunit alpha isoform (Homo sapiens), P42336 [I800L]; conditions: Compound concentration 1000.0 nM
[28] = molecular target: Receptor-interacting serine/threonine-protein kinase 2 (Homo sapiens) (UniProt O43353); conditions: Compound concentration 1000.0 nM
[29] = molecular target: Tyrosine-protein kinase receptor TYRO3 (Homo sapiens) (UniProt Q06418); conditions: Compound concentration 1000.0 nM
[30] = molecular target: Serine/threonine-protein kinase ULK3 (Homo sapiens) (UniProt Q6PHR2); conditions: Compound concentration 1000.0 nM
[31] = molecular target: Serine/threonine-protein kinase PAK 3 (Homo sapiens) (UniProt O75914); conditions: Compound concentration 1000.0 nM
[32] = molecular target: Serine/threonine-protein kinase 33 (Homo sapiens) (UniProt Q9BYT3); conditions: Compound concentration 1000.0 nM
[33] = molecular target: Microtubule-associated serine/threonine-protein kinase 1 (Homo sapiens) (UniProt Q9Y2H9); conditions: Compound concentration 1000.0 nM
[34] = molecular target: Rho-associated protein kinase 2 (Homo sapiens) (UniProt O75116); conditions: Compound concentration 1000.0 nM
[35] = molecular target: Atypical kinase COQ8A, mitochondrial (Homo sapiens) (UniProt Q8NI60); conditions: Compound concentration 1000.0 nM
[36] = molecular target: Serine/threonine-protein kinase TNNI3K (Homo sapiens) (UniProt Q59H18); conditions: Compound concentration 1000.0 nM
[37] = molecular target: T1, 5-hydroxytryptamine receptor 3A (Homo sapiens) (UniProt P46098); conditions: Compound concentration 10.0 uM
T1 sequence (whole entry): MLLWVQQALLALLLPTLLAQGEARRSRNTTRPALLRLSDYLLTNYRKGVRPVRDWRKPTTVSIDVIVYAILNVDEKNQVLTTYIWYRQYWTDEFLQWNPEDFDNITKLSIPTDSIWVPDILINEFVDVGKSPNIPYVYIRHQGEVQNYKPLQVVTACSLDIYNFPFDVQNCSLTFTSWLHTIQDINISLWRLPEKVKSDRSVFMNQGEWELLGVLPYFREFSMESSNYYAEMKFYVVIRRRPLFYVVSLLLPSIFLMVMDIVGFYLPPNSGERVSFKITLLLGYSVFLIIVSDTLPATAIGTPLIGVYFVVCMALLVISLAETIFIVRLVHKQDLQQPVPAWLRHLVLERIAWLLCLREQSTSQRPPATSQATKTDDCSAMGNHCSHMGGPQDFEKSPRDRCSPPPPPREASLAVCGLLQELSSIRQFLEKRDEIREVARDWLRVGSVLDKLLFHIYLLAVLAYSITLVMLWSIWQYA

[38] = molecular target: Mitogen-activated protein kinase kinase kinase 9 (Homo sapiens) (UniProt P80192); conditions: Compound concentration 1000.0 nM

Serine/threonine-protein kinase tousled-like 1 (Homo sapiens), sequence (Q9UKI8 whole entry): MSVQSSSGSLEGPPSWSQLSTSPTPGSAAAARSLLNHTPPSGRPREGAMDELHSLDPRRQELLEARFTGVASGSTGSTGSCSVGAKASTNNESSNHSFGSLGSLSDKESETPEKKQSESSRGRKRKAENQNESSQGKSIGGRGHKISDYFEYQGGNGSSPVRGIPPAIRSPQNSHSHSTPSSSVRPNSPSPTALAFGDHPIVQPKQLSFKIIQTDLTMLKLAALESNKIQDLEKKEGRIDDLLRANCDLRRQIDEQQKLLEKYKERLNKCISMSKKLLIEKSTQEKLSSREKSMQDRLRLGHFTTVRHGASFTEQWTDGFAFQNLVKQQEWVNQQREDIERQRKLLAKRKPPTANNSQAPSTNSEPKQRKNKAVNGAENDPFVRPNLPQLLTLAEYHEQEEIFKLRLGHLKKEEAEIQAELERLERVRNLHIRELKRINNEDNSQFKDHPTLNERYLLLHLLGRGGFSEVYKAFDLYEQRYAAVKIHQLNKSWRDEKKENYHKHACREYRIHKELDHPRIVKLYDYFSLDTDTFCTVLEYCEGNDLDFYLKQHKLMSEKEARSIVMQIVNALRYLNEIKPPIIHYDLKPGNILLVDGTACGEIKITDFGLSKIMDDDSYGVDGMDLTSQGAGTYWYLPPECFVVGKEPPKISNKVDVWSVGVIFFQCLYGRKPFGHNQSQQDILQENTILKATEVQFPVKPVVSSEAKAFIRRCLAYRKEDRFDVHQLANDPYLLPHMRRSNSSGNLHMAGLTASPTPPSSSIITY
Myosin light chain kinase family member 4 (Homo sapiens), sequence (Q86YV6 whole entry): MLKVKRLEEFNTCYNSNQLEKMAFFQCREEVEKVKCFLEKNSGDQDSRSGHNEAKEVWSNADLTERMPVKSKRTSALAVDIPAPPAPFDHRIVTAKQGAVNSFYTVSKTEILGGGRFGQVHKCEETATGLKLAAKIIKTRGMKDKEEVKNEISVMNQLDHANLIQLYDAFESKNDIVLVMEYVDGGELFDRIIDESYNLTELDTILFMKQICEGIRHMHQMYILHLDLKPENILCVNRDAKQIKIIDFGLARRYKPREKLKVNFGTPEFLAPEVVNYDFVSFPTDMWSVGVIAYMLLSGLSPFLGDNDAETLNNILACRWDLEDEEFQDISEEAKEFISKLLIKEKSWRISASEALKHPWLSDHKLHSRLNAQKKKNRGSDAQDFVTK
Mitogen-activated protein kinase 3 (Homo sapiens), sequence (P27361 whole entry): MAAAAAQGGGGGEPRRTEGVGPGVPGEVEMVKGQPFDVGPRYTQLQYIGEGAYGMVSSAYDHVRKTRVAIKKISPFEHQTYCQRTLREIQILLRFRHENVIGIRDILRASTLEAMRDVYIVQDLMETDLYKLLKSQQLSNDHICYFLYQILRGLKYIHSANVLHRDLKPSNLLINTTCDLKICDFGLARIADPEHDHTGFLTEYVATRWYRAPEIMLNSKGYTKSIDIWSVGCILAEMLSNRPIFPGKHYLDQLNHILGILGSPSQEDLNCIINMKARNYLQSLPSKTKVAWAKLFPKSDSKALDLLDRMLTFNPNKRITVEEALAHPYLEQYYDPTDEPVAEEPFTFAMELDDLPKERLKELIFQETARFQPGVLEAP
Calcium-dependent protein kinase 1 (Plasmodium falciparum), sequence (P62344 2-524 limits assumed): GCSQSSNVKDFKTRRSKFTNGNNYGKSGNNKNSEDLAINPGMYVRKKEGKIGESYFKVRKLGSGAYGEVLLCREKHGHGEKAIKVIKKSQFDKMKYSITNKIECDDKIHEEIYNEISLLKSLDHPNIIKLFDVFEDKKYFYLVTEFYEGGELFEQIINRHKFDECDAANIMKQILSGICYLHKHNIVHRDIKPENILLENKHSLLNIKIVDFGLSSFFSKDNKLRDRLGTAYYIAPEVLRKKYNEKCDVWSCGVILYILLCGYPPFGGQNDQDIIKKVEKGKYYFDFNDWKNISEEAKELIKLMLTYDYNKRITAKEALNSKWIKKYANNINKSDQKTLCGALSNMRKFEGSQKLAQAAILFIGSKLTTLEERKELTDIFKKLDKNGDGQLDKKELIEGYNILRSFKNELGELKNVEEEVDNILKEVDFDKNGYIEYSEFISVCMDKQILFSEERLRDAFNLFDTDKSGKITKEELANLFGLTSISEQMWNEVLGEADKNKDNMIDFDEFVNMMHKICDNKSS
Cyclin-dependent kinase-like 3 (Homo sapiens), sequence (Q8IVW4 whole entry, looked up): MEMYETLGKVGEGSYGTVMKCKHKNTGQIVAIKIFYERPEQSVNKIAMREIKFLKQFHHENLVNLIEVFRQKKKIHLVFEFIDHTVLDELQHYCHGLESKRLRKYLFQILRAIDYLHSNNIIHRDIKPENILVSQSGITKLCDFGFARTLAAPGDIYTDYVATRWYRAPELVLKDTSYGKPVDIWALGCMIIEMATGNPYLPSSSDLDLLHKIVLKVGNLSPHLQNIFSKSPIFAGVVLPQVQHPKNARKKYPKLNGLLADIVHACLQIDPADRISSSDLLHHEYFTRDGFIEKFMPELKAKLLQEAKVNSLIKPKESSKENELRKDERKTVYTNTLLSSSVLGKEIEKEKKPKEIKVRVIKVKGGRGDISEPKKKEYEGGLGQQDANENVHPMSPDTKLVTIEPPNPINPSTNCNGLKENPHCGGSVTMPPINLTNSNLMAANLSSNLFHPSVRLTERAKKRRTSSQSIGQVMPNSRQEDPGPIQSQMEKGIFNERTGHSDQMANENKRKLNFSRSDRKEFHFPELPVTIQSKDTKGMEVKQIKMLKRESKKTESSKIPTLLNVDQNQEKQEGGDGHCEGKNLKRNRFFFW
Microtubule-associated serine/threonine-protein kinase 1 (Homo sapiens), sequence (Q9Y2H9 whole entry, looked up): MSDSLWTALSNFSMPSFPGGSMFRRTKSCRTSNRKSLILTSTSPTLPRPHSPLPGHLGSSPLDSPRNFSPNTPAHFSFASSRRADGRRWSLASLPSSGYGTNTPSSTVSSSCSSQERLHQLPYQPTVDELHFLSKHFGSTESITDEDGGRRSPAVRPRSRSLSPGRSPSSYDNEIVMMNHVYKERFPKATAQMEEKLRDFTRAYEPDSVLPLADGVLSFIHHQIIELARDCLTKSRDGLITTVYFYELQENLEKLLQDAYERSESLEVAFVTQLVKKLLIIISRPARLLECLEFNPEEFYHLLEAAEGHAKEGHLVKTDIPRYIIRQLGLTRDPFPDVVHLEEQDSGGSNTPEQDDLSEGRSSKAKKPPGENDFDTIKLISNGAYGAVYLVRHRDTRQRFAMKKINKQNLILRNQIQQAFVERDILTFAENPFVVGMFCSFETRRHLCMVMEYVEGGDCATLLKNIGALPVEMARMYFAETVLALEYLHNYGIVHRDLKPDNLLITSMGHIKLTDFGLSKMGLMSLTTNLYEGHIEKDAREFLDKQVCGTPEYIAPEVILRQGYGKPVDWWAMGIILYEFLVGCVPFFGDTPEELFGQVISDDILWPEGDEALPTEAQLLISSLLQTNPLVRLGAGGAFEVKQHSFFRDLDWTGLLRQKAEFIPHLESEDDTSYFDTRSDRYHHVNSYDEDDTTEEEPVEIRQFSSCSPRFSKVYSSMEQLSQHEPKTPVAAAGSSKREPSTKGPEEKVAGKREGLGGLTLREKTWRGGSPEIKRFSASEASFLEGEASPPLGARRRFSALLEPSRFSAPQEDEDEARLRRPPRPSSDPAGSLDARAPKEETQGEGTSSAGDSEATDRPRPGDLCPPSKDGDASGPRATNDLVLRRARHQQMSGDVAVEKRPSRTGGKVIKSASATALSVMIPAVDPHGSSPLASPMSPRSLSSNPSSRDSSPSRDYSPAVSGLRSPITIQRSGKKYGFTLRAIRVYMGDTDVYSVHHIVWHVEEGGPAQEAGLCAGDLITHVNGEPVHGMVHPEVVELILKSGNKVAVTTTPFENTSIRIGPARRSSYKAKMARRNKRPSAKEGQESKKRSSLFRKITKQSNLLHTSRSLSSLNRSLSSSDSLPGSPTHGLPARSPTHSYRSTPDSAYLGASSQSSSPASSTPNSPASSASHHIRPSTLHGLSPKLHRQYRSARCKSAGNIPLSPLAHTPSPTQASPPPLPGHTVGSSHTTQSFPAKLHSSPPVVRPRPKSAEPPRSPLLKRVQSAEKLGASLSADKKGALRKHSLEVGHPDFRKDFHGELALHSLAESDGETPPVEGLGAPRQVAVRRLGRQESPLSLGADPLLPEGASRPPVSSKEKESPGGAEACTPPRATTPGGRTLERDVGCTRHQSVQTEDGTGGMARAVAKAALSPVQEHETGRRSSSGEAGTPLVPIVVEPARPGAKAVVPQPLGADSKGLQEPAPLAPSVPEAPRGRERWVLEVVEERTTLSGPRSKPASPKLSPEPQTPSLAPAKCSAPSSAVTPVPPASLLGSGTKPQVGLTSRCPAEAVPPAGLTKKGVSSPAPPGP
Serine/threonine-protein kinase PAK 3 (Homo sapiens), sequence (O75914 whole entry, looked up): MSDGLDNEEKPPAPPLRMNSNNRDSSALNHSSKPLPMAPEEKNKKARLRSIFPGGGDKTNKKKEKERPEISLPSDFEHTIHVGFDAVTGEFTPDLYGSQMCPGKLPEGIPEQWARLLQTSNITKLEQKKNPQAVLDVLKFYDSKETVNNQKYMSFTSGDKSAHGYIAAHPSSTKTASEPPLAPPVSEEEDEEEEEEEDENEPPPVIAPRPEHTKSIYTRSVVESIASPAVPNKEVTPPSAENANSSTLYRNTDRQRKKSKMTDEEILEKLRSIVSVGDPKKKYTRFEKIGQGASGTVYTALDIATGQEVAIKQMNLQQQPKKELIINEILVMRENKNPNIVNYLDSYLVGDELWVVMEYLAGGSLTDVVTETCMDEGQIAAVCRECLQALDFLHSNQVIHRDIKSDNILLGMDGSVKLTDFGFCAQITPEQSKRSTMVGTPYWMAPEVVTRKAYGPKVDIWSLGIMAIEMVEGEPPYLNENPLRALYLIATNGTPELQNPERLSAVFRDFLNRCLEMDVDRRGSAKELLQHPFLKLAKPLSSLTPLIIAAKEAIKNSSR

O=C(NC[C@@H]1[C@H]2CN(C(=O)OCc3cc(C(F)(F)F)cc(C(F)(F)F)c3)C[C@@H]12)c1ccc2[nH]nnc2c1 [BI 2545]
residual activity [1]: 100%
residual activity [2]: 100%
residual activity [3]: 100%
residual activity [4]: 91%
residual activity [5]: 71%
residual activity [6]: 86%
residual activity [7]: 80%
residual activity [8]: 87%
residual activity [9]: 100%
residual activity [10]: 100%
residual activity [11]: 45%
residual activity [12]: 95%
residual activity [13]: 100%
residual activity [14]: 100%
residual activity [15]: 82%
residual activity [16]: 91%
residual activity [17]: 84%
residual activity [18]: 75%
residual activity [19]: 100%
residual activity [20]: 68%
inhibition [21]: 19%
residual activity [22]: 86%
residual activity [23]: 91%
inhibition [24]: 39.5%
residual activity [25]: 100%
residual activity [26]: 99%
residual activity [27]: 83%
residual activity [28]: 64%
residual activity [29]: 75%
residual activity [30]: 99%
residual activity [31]: 100%
residual activity [32]: 84%
residual activity [33]: 100%
residual activity [34]: 90%
residual activity [35]: 100%
residual activity [36]: 80%
inhibition [37]: 8.82%
residual activity [38]: 100%

Cc1nccc(COC(=O)N2C[C@@H]3[C@@H](CNC(=O)c4ccc5[nH]nnc5c4)[C@@H]3C2)n1 [BI 3017]
residual activity [1]: 77%
residual activity [2]: 98%
residual activity [3]: 94%
residual activity [4]: 82%
residual activity [5]: 85%
residual activity [6]: 90%
residual activity [7]: 79%
residual activity [8]: 99%
residual activity [9]: 83%
residual activity [10]: 92%
residual activity [11]: 100%
residual activity [12]: 100%
residual activity [13]: 89%
residual activity [14]: 100%
residual activity [15]: 81%
residual activity [16]: 100%
residual activity [17]: 91%
residual activity [18]: 100%
residual activity [19]: 91%
residual activity [20]: 87%
inhibition [21]: 3.82%
residual activity [22]: 100%
residual activity [23]: 100%
inhibition [24]: 7.45%
residual activity [25]: 100%
residual activity [26]: 100%
residual activity [27]: 73%
residual activity [28]: 100%
residual activity [29]: 100%
residual activity [30]: 100%
residual activity [31]: 75%
residual activity [32]: 93%
residual activity [33]: 100%
residual activity [34]: 86%
residual activity [35]: 84%
residual activity [36]: 94%
inhibition [37]: 16.4%
residual activity [38]: 89%
